For orientation: IC50 means the midpoint of a concentration-inhibition curve.

For data set [1] the following is noted: cited from earlier work.
For data set [2] the following is noted: cited from earlier work. This is another data set of the same source.
For data set [3] the following is noted: aqueous solution; literature; cited from earlier work.
For data set [4], the target named is GABAA receptors. To be noted: Table 2; Matsuzaki et al. 2010; read-out: IC50 in blocking synaptic GABAA currents; cited from earlier work.
Data set [5] deals with GABAA receptors. The experiment in a line: Current evoked by puff of 100 μM GABA and caged compounds around the soma (Matsuzaki et al., 2010). It counts as cell-based. To be noted: for IC33: calculated, q=0.33. As for the experimental part: (§1) FIG. 26 illustrates whole-cell patch clamp recordings from dentate granule cells of rat hippocampal slices reported by Molnár & Nadler, 2000. […] Holding potential of −80 mV. (Molnár & Nadler, 2000 European Journal of Pharmacology, 391, 255-262, which is incorporated herein by reference as if fully set forth, which is incorporated herein by reference as if fully set forth). […] FIG. 27 illustrates summary of the amplitudes of the current evoked by puff of 100 μM GABA and caged compounds around the soma reported by Matsuzaki et al., 2010. The amplitude was normalized to the mean current that was induced by GABA application alone. Left panel illustrates control (n=7); +10 mM CNI-GABA (n=7). Central panel illustrates control (n=10); +0.4 mM CDNI-GABA (n=10), +1.35 mM CDNI-GABA (n=14); +10 mM CDNI-GABA (n=10). Right panel illustrates control (n=9); +1 mM MNI-Glu (n=4); +10 mM MNI-Glu (n=9). ** p<0.0001, * p<0.01 (Matsuzaki et al., 2010 Nature Chemical Biology, 6, 255-257, which is incorporated herein by reference as if fully set forth). […] Though this is a much higher concentration compared to the IC50 for CNB-GABA, CDNI requires a higher concentration when photolyzed in vitro because of its two-photon sensitivity. Because 10 mM is the concentration used for two-photon uncaging, this antagonism is still practically limiting. […] FIG. 28 illustrates the effects of NI-caged GABA and DPNI-GABA on amplitudes of miniature GABA synaptic currents as reported by Trigo et al., 2009. Referring to FIG. 28 (left), this panel illustrates recordings of miniature synaptic GABA currents in molecular layer interneurons before and during application of 1 mM DPNI-GABA. The initial inward current on diluting the cage into the bath was attributable to contaminating levels of GABA. Referring to FIG. 28 (right), the panel illustrates summary histogram from five cells of the block of spontaneous GABA currents by DPNI-GABA at different concentrations in the bath. (Trigo et al., 2009 Journal of Neuroscience Methods, 181, 159-169, which is incorporated herein by reference as if fully set forth).

The conditions of data set [6]: N-position; Wieboldt et al., 1994; cited from earlier work.
For data set [7], the system named is GABAA receptors. To be noted: cited from earlier work.
For data set [8], the system named is cerebellar molecular layer interneurons. Description: Photolysis-evoked GABAergic currents in cerebellar molecular layer interneurons. It counts as cell-based. The method, then: The biological properties of our synthetic bis-CNB-GABA were evaluated using whole-cell patch recording from cerebellar molecular layer interneurons.
FIGS. 42A-42E illustrate physiological responses to photolysis of bis-CNB-GABA. FIG. 42A illustrates a cerebellar molecular layer interneuron visualized using Alexa 488 in the patch recording electrode solution. Referring to FIG. 42A, bis-CNB-GABA (0.6 mM) was photolyzed with a 405 nm laser spot in 3 different locations (indicated by 1, 2 and 3). Still referring to FIG. 42A, laser-evoked GABAergic currents are shown on the right panel. Still referring to FIG. 42A, gray traces show individual sweeps and black traces are averages. Still referring to FIG. 42A, the gray sweep at bottom indicates the laser flash (1 ms duration, intensity 5 mW) as recorded using a photodiode. FIG. 42B illustrates bis-CNB-GABA (1.4 mM) was photolyzed with a […] LED at progressively higher flash energies (0.25-1.1 mW, 5-50 ms, 1.25-55 μJ). FIG. 42C illustrates the same experiment as shown in FIG. 42B with Responses to mono-CNB-GABA (50 μM). FIG. 42D illustrates normalized current as a function of relative LED flash energies plotted on a log-log scale. FIG. 42E illustrates laser-evoked whole-cell current recorded in the absence and presence of 3 μM gabazine, a GABA receptor antagonist. Referring to FIG. 42E, a larger flash energy was used in the presence of gabazine.
Referring to FIG. 42A, molecular layer interneurons receive excitatory glutamatergic synapses, as well as inhibitory GABAergic synapses that show a pronounced level of spontaneous activity (gray traces). The effects of bis-CNB-GABA on these synaptic currents were tested.
By contrast, the relationship for mono-O-CNB-GABA was close to linear (log-log slope=1.3±0.1, n=3). For these measurements, evoked currents were normalized to the maximum current observed in the same neuron. […] These power laws are consistent with a process in which each molecule of bis-CNB-GABA must cumulatively undergo two uncaging reactions in order to release an active GABAA agonist.
To test whether bis-CNB-GABA-evoked responses resemble physiological events in their kinetics, we measured the kinetic properties of flash responses. […] This rise time is consistent with the dark reaction time (1.5 ms) for the slower cage, N-mono-CNB-GABA (Wieboldt, R.; Ramesh, D.; Carpenter, B. K; Hess, G. P. Biochemistry, 1994, 33, 1526-1533, which is incorporated herein by reference as if fully set forth). […] These rates approach those of spontaneous events and are among the fastest described for other GABA cages. […]

Data set [9] deals with GABAA receptors. To be noted: cited from earlier work. This is another data set of the same source.
The subject of data set [10] is GABAA receptors. The experiment in a line: Miniature GABA synaptic currents in molecular layer interneurons (Trigo et al., 2009). It counts as cell-based. The method, then:
as §1

The test system of a further data set is cerebellar interneurons. To be noted: FIG. 43A, 1 mM; see Trigo et al., 2009; cited from earlier work.

Like-named read-outs stand apart in the source and are kept apart here.

Regarding `O=C(O)CC[C@H](NC(=O)OCc1cc(=O)oc2cc(O)c(Br)cc12)C(=O)O` [Bhc-glutamate], in data set [1] (caged on the amine), the “product of extinction coefficient and quantum yield (φ×ε)” value is 331 M⁻¹ cm⁻¹; the quantum yield is given as 0.019. Besides, in data set [1] (literature values), the “product of extinction coefficient and quantum yield (ε×Φ)” value is 371 M⁻¹ cm⁻¹; the quantum yield is given as 0.019. In data set [2] (at 368 nm, caged on the amine), the extinction coefficient was 17,470 M^−1 cm^−1. In data set [2] (at 369 nm, caged at the carboxylate), the extinction coefficient is 19,550 M^−1 cm^−1.
Consider `NCCCC(=O)N1CCc2c(OCC(=O)O)c([N+](=O)[O-])cc([N+](=O)[O-])c21` [CDNI-GABA], for which, in data set [1] (literature values), the “product of extinction coefficient and quantum yield (ε×Φ)” value is listed as 3,840 M^−1 cm^−1; the quantum yield is reported as 0.6. For the same compound, the Stability entry in [3] is reported as “Stable”. For the same compound, the concentration for half-maximal inhibition (IC50) on GABAA receptors [4] was 600 µM. Besides, the extinction coefficient in [2] (at 330 nm) is 6,400 M^−1 cm^−1. Also, the “concentration showing 33% reduced response” value in the data set on GABAA receptors [5] is 220 µM. Further, the IC33 in the data set on GABAA receptors [5] (Table 1) is listed as 0.22. Half-maximal inhibition against GABAA receptors [5] (from data of Matsuzaki et al., 2010) (IC50) required 450 µM.
In the case of `O=C(O)CCCNC(C(=O)O)c1ccccc1[N+](=O)[O-]` (stereo not shown) [N-mono-CNB-GABA], the dark reaction time in [6] is 1.5 ms.
`COc1ccc([N+](=O)[O-])c2c1CCN2C(=O)CCCN` [MNI-GABA]: the “effect on GABAA receptors” value with GABAA receptors [7] (less than CNB-GABA, Palma-Cerda et al., 2012) is on record as “antagonistic effect”.
Take `COc1ccc(-c2ccc(=N)n(CCCC(=O)O)n2)cc1` [gabazine]: the “effect on currents produced by photolysis of bis-CNB-GABA” value in [8] (3 μM gabazine) is “reversibly eliminated”. The “effect on responses to photolysis of bis-CNB-GABA” value in [8] (3 M gabazine) is given as “eliminated these responses”.
With `NCCCC(=O)N1CCc2c(OC(COP(=O)(O)O)COP(=O)(O)O)ccc([N+](=O)[O-])c21` [DPNI-GABA], the decrease in response in the data set on GABAA receptors [9] (1 mM) was over 50%. Moreover, the IC50 on GABAA receptors [9] (Table 2, cerebellar interneurons, read-out: IC50 in blocking synaptic GABAA currents) was 500 µM; at GABAA receptors [10] (from data of Trigo et al., 2009), 470 µM. Moreover, in the data set on GABAA receptors [9] (Trigo et al., 2009), the “effect on rise times of IPSCs” value is on record as “prolongs rise times”. In the data set with GABAA receptors [10], the “concentration showing 33% reduction” value was found to be 230 µM. In addition, the IC33 with GABAA receptors [10] (Table 1, calculated, q=0.33) is 0.23 mM. Also, the Stability result in data set [3] is given as “Stable”. Also, the “effect on inward holding current compared with mono-O-CNB-GABA” value with cerebellar interneurons is “similar, though less pronounced”.
Regarding `COc1ccc([N+](=O)[O-])c2c1CCN2C(=O)CC[C@H](N)C(=O)O` [MNI-glu], the quantum yield in [1] (literature values) is on record as 0.085. The IC50 on GABAA receptors [5] (Table 1, calculated from data of Matsuzaki et al. 2010) is 1100 µM. The IC33 in the data set on GABAA receptors [5] (Table 1) was 0.37.
As for `CP(C)C.F[P-](F)(F)(F)(F)F.F[P-](F)(F)(F)(F)F.NC(CCC(=O)[O-])C(=O)[O-].[Na+].[Na+].[Ru+2].c1ccc(-c2ccccn2)nc1.c1ccc(-c2ccccn2)nc1` [RuBi-glutamate], the 50% inhibitory concentration (IC50) at GABAA receptors [7] (Table 2 footnote 2, Fino et al., 2009, read-out: IC50 in blocking synaptic GABAA currents) was 300 µM.
For the compound `F[P-](F)(F)(F)(F)F.NCCCC(=O)[O-].[Ru+2].c1ccc(-c2ccccn2)nc1.c1ccc(-c2ccccn2)nc1.c1ccc(P(c2ccccc2)c2ccccc2)cc1` [RuBi-GABA, Ruthenium-bipyridine-triphenylphosphine-GABA], the “concentrations at which antagonistic GABAA receptor activity is exhibited” value in the data set with GABAA receptors [7] (Verde et al., 2008) is reported as “above 20 μM”.

The values above are taken from patent US9625448B2, “Double caged GABA compounds, bis-CNB-GABA” (The Trustees of Princeton University, priority 2014, dated 2017).
